Experimental data: patent US20090163715A1, “Intermediate in Production of [2-(3,3,5,5-Tetramethylcyclohexyl)phenyl]Piperazine Compound” (EISAI R&D MANAGEMENT CO., LTD., priority 2005, published 2009)
pIC50: −log10 of the molar value.

Columns and labels:
[1] = tested on: Jurkat cells; assay: Jurkat cell adhesion system (PMA-stimulated adhesion to immobilized human fibronectin); assay type: cell-based; conditions: Jurkat cells on human fibronectin-coated 96-well plate, PMA stimulation, 37° C. for 45-60 minutes; read-out: IC50 (concentration which inhibited the increase in the number of adhered cells by the PMA-stimulation by 50%)
Description: Human fibronectin (Becton Dickinson Biosciences) was diluted with phosphate-buffered saline (hereinafter abbreviated as PBS; Sigma) to 0.1-0.01 μg/mL, and the diluted solution was added to a 96-well plate (Becton Dickinson) at 50 μL/well, and allowed to stand overnight at 4° C. On the following day, the supernatant was removed from the plate, and then PBS containing 1% bovine serum albumin (hereinafter abbreviated as BSA; Sigma) was added thereto at 100 μL/well and incubation was performed at 37° C. for 2 hours in a CO2 incubator (Hirasawa).
The supernatant was removed from each plate and Jurkat cells suspended in RPMI-1640 (Sigma) containing 1 mg/mL BSA were added at 80 μL/well for 2.5×10^5 cells/well. The compound (B) diluted to different concentrations with RPMI-1640 containing […] BSA was immediately added at 10 μL/well, and then 100 nM phorbol myristate acetate (hereinafter abbreviated as PMA; Sigma) in RPMI-1640 containing 1 mg/mL BSA was added at 10 μL/well and the plate was incubated in a CO2 incubator at 37° C. for 45-60 minutes. […] After incubation, 50 mM glycine buffer (pH 10.4) containing 5 mM EDTA was added at 90 μL/well, and the absorbance at 405 nm was measured with an EL340 Automated Microplate Reader (BIO-TEK) to determine the adhered cell count.

[2] = tested on: human peripheral blood neutrophils; assay: Human peripheral blood neutrophil adhesion system (PMA-stimulated adhesion to HUVEC immobilized plate); assay type: cell-based; conditions: 0.75 h; BCECF-AM labeled human neutrophils on HUVEC immobilized plate, PMA stimulation, 37° C. for 45 minutes; read-out: IC50 (concentration which inhibited the increase in the number of adhered cells by the PMA-stimulation by 50%)
Description: To a plastic centrifugation tube containing 100 units of heparin sodium (Shimizu Pharmaceutical) was added 25 mL of fresh blood sampled from a healthy human. After adding and mixing therewith 8 mL of physiological saline (Otsuka Pharmaceutical) containing 6% Dextran (Nacalai), the mixture was allowed to stand at room temperature for 45 minutes for sedimentation of the erythrocytes. The resultant supernatant was transferred to another plastic centrifugation tube and combined with an equivalent volume of PBS, and then centrifuged at 1600 rpm for 7 minutes at room temperature. The obtained hematocyte fraction was suspended in 4 mL of PBS, and the suspension was superposed on 4 mL of Ficoll-Paque™ PLUS (Amersham Biosciences). […]
To 6.5 mL of RPMI-1640 medium (Sigma) containing 1 mg/mL of BSA were added 0.5 mL of a suspension of BCECF-AM labeled neutrophils at 5×10^7 cells/mL stored in ice, which was mixed, and the mixture was added at 80 μL/well to a HUVEC immobilized plate. […] The supernatant was removed from the plate, which was then washed several times with RPMI-1640 at 100 μL/well, and then PBS containing 0.1% NP-40 (Calbiochem) was added thereto at 100 μL/well and the fluorescent intensity was measured with an ARVO™SX 1420 multi label counter (Wallac) to determine the number of adhered cells.

CC1(C)CC(c2ccccc2N2CCN(CC3CC3)CC2)CC(C)(C)C1 [compound (B), 1-Cyclopropylmethyl-4-[2-(3,3,5,5-tetramethylcyclohexyl)phenyl]piperazine methanesulfonate]
pIC50 [1]: 5.33 | pIC50 [2]: 5.15
